Values quoted from earlier work, collected in patent US6443892B1, “Sweat collecting device and methods for use and detection of tampering” (The United States of America as represented by the …, priority 2000, dated 2002).

Legend:
[1] = basic media
[2] = hydrophilic dye; hydration of inner pad not reported

Compound	earliest collection time with detectable concentrations after drugs placed on outside of membrane [1]	CFWO through membrane [2]
CC(=O)Oc1ccc2c3c1O[C@H]1[C@@H](OC(C)=O)C=C[C@H]4[C@@H](C2)N(C)CC[C@@]341 [heroin]	approximately 30 seconds	–
CN[C@@H](C)Cc1ccccc1 [methamphetamine]	approximately 30 seconds	–
CCN(CC)c1ccc2c(-c3ccccc3C(=O)O)c3ccc(=[N+](CC)CC)cc-3oc2c1.[Cl-] [rhodamine B]	–	No CFWO was observed
